How the values were obtained:
reticulosarcoma M5-M5076 = assay: Test for reticulosarcoma M5-M5076; type: in vivo, BDF1 hybrid mice; settings: D1,5,9,13,17; for Number of survivors: day D75; for T/C %: survival time
Experimental: (§1) The antitumour activity was tested in vivo on various tumours inoculated in various ways according to the following general protocol:
(§2) All the male or female mice are inoculated on day D0 with a known quantity of viable tumour cells for ascitic tumours or with a known tumour fragment for solid tumours.
(§3) They are then distributed into various groups. Each group, corresponding to the animals treated by the product under test, is made up of 10 mice. The product under test is dissolved in distilled water and it is administered n times (Dx-Dy), n, y, and x varying according to the protocol chosen, at the rate of 0.1 ml of solution per 10 g by weight of mice treated and at specific doses for each protocol.
(§4) The "negative control" group, corresponding to the animals which are not treated by the product, contains 2√N animals, N being equal to or greater than the total number of mice treated by the product in the same experiment.
(§5) Finally, the tests can also be carried out at the same time as the study of a group called "positive control", of ten animals, which is treated by a molecule, known for its antitumour activity and which can vary according to the protocol chosen, in the same conditions as the groups treated by the product under test.
(§6) The antitumour activity is evaluated, in the case of ascitic tumours, by considering the increase in the survival time of the animals treated in comparison to that of the animals in the "negative control" group, according to the formula: [formula]
(§7) Also, a product is considered as toxic at the dose studied when this T/C value is equal to or less than 85%. In addition, a product is also considered as toxic at the dose studied when the weight variation, expressed in grams and calculated by the formula: […]
The tests are carried out with BDF1 hybrid mice inoculated by intraperitoneal route with 10^6 cells of the M5-M5076 line. The compound under test is administered 5 times successively in sequence (D1,5,9,13,17) by intraperitoneal route. The positive control for the test is cyclophosphamide administered in the same conditions. The number of surviving animals is evaluated on day D75.

leukemia L 1210 [1] = assay: Test for leukemia L 1210, IP/IP, D1-D5; type: in vivo, CDF1 hybrid mice; settings: for Number of survivors: day D60; for T/C %: survival time
Experimental: as §1, §2, §3, §4, §5, §6, §7
(c) Test for leukemia L 1210, IP/IP, D-5 (GERAN et al., Cancer cheomother.,1972, 2, 07-57).
(§8) The tests are carried out with CDF1 hybrid mice inoculated by intraperitoneal route with 10^5 leukemia cells from the L 1210 line. The compound under test is administered for 5 days (D1-D5) by intraperitoneal route. The positive control for the test is 5-fluorouracile administered in the same conditions. The number of surviving animals is evaluated on day D60.

leukemia L 1210 [2] = assay: Test for leukemia L 1210 IP/D1 IV; type: in vivo, CDF1 hybrid mice; settings: 20 mg/kg IV
Experimental: as §1, §2, §3, §4, §5, §6, §7, §8
(g) Test for leukemia L 1210 IP/D1 IV. (GERAN et al., Cancer Chemother., 1972, 2, 07-57).
The test is carried out according to the same protocol as that described for test (c), the compound under test being administered by intravenous route only on day D1.

[3] = test system: leukemia tumour line L 1210; assay: In vitro cytotoxic activity on leukemia tumour line L 1210; type: cell-based; settings: Mus musculus, L1210, 48 h, L 1210, 48 hours contact, 37° C.; read-out: I D 50 (concentration which inhibits the proliferation of the cells by 50%)
In short: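 Exponentially growing L 1210 leukemia cells were exposed to increasing compound concentrations at 37 °C under CO2 and counted every 24 h. ID50, the concentration inhibiting proliferation by 50%, was calculated after 48 h contact.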

## Cc1cnc(NCCCN(C)C)c2c1[nH]c1ccc(O)cc12 [Derivative No. 10, 1-(3-dimethylaminopropylamino)-8-hydroxy-4-methyl-5H-pyrido[4,3-b]indole]
Reticulosarcoma M5-M5076; 1.25 mg/kg IP
  Median day of survival: 34.0 days
  Variation by weight (g): +2.7 g
  Number of survivors: 1/10
  T/C %: 133%
Reticulosarcoma M5-M5076; 2.5 mg/kg IP
  Median day of survival: 33.0 days
  Variation by weight (g): +0.4 g
  Number of survivors: 1/10
  T/C %: 129%
Reticulosarcoma M5-M5076; 5 mg/kg IP
  Median day of survival: 40.0 days
  Variation by weight (g): +2.1 g
  Number of survivors: 1/10
  T/C %: 156%
Reticulosarcoma M5-M5076; 10 mg/kg IP
  Median day of survival: 42.0 days
  Variation by weight (g): +1.2 g
  Number of survivors: 1/10
  T/C %: 164%
Reticulosarcoma M5-M5076; 20 mg/kg IP
  Median day of survival: 44.75 days
  Variation by weight: 0.0 g
  Number of survivors: 1/10
  T/C %: 175%
Reticulosarcoma M5-M5076; 40 mg/kg IP
  Median day of survival: 46.0 days
  Variation by weight: -2.8 g
  Number of survivors: 2/10
  T/C %: 180%
Leukemia L 1210 [1]; 1.25 mg/kg IP
  Median day of survival: 12.75 days
  Variation by weight: -1.7 g
  Number of survivors: 1/10
  T/C %: 145%
Leukemia L 1210 [1]; 2.5 mg/kg IP
  Median day of survival: 20.0 days
  Variation by weight: -2.1 g
  Number of survivors: 4/10
  T/C %: 227%
Leukemia L 1210 [1]; 5 mg/kg IP
  Median day of survival: > 60 days
  Variation by weight: -2.7 g
  Number of survivors: 6/10
  T/C %: > 682%
Leukemia L 1210 [1]; 10 mg/kg IP
  Median day of survival: 15.25 days
  Variation by weight: -3.1 g
  Number of survivors: 4/10
  T/C %: 173%
Leukemia L 1210 [1]; 20 mg/kg IP
  Median day of survival: 8.4 days
  Variation by weight: -5.6 g
  Number of survivors: 0/10
  T/C %: 95%

## Cc1cnc(NCCCN(C)C)c2c3cc(O)ccc3n(C)c12 [Derivative No. 14, 4,5-dimethyl 1(3-dimethylaminopropylamino)-8-hydroxy-5H-pyrido[4,3-b]indole]
Leukemia L 1210 [2]
  Median day of survival: 14.0 days
  Variation by weight: -1.1 g
Leukemia L 1210 [2]; day D60
  Number of survivors: 0/10
Leukemia L 1210 [2]; survival time
  T/C %: 157%
[3]
  IC50: 14 nM

## CCN(CC)CCCNc1ncc(C)c2[nH]c3ccc(O)cc3c12 [Derivative No. 7, 1-(diethylaminopropylamino)-8-hydroxy-4-methyl-5H-pyrido[4,3-b]indole]
Reticulosarcoma M5-M5076; 2.5 mg/kg IP
  Median day of survival: 31.25 days
  Variation by weight: -1.0 g
  Number of survivors: 0/10
  T/C %: 120%
Reticulosarcoma M5-M5076; 5 mg/kg IP
  Median day of survival: 33.0 days
  Variation by weight: -1.4 g
  Number of survivors: 1/10
  T/C %: 127%
Reticulosarcoma M5-M5076; 10 mg/kg IP
  Median day of survival: 37.25 days
  Variation by weight: -1.8 g
  Number of survivors: 0/10
  T/C %: 143%
Reticulosarcoma M5-M5076; 20 mg/kg IP
  Median day of survival: 41.0 days
  Variation by weight: -1.9 g
  Number of survivors: 0/10
  T/C %: 158%
Reticulosarcoma M5-M5076; 40 mg/kg IP
  Median day of survival: 42.0 days
  Variation by weight: -1.8 g
  Number of survivors: 1/10
  T/C %: 161%
[3]
  IC50: 60 nM
Leukemia L 1210 [1]; 0.625 mg/kg IP
  Median day of survival: 11.75 days
  Variation by weight: -0.9 g
  Number of survivors: 0/10
  T/C %: 133%
Leukemia L 1210 [1]; 1.25 mg/kg IP
  Median day of survival: 14.25 days
  Variation by weight: -1.2 g
  Number of survivors: 0/10
  T/C %: 162%
Leukemia L 1210 [1]; 2.5 mg/kg IP
  Median day of survival: 20.75 days
  Variation by weight: -1.1 g
  Number of survivors: 4/10
  T/C %: 236%
Leukemia L 1210 [1]; 5 mg/kg IP
  Median day of survival: 14.0 days
  Variation by weight: -0.8 g
  Number of survivors: 2/10
  T/C %: 159%
Leukemia L 1210 [1]; 10 mg/kg IP
  Median day of survival: 37.0 days
  Variation by weight: -2.2 g
  Number of survivors: 5/10
  T/C %: 420%
Leukemia L 1210 [1]; 20 mg/kg IP
  Median day of survival: 35.0 days
  Variation by weight: -4.2 g
  Number of survivors: 5/10
  T/C %: 398%
Leukemia L 1210 [1]; 30 mg/kg IP
  Median day of survival: 8.25 days
  Variation by weight: -5.6 g
  Number of survivors: 0/10
  T/C %: 94%

Reference: patent US4835160A, “Derivatives of pyridoindole, having anti-tumor properties” (Sanofi, priority 1986, dated 1989)
